“Also recorded” adds a separate entry of the source.
Columns and labels:
p53 = assay: Western Blot p53 expression, HCT116; assay type: cell-based; conditions: n ≥ 3
Procedure: (§1) Cells were irradiated using ^137Cs gamma-ray photons at a dose-rate of ~1 Gy/min (Best Theratronics Gammacell® 40Exactor, Springfield, USA).
(§2) Whole-cell lysates were prepared according to standard protocols. Protein concentrations were measured using a DeNovix DS-11 spectrophotometer (DeNovix Inc., Wilmington, DE, USA). Samples were separated on 4–12% Bis-Tris SDS gels and transferred to a nitrocellulose membrane (ThermoFisher Scientific, Uppsala, Sweden) by wet-transfer blotting. The membrane was blocked for 1 h in PBS with 5% BSA before incubation with primary antibodies targeting p53, caspase-3, NaK-ATPase and GLB1 (DO-1 (ab1101), ab13847, ab76020 and ab128993, AbCam, Cambridge, UK) and β-actin (A5441, Sigma Aldrich Sweden, Stockholm, Sweden) at 4°C overnight. After washing with PBS with 1% Tween-20, the membrane was incubated with respective and species-specific Horse Radish Peroxidase-labeled secondary antibody (ThermoFisher Scientific, Waltham, MA, USA) and stained with electro-chemiluminescent solution (Immobilon, Millipore, Bedford, USA).

cleaved caspase-3 [1] = assay: Flow cytometry cleaved caspase-3, HCT116; assay type: cell-based
Procedure: as §1
Cells were collected and fixed in 70% ethanol at 6, 12, 24, 48, 72, and 96 h post-irradiation and stored at −20°C. For cell cycle analyses, 6, 12, 24, and 48 h samples were rehydrated and washed twice with PBS and stained with DAPI (Sigma Aldrich Sweden, Stockholm, Sweden) using 1 μg/ml for 30 min. 24, 48, 72, and 96 h samples were stained with caspase-3 and Noxa (ab13847 (1:500) and ab13654 (1:1,000), AbCam, Cambridge, UK) overnight at 4°C, followed by incubation with fluorescent labeled secondary antibodies for 90 min (ab 1:400) at room temperature. Analyses were performed using a BD LSR Fortessa flow cytometer (Becton Dickinson Biosciences, San Jose, USA). Data analyses for cleaved caspase-3 and Noxa were performed with BD FACSDiVa (Becton Dickinson Biosciences, San Jose, USA), while cell cycle analyses of exclusively viable cells were performed using FlowJo (Becton, Dickinson Biosciences, San Jose, USA). Coefficient of variation (CV) values, were below seven for all samples.

UT-SCC-45 = assay: XTT cell viability, UT-SCC-45; assay type: cell-based; conditions: n ≥ 4
Procedure: The human squamous cell carcinoma cell lines UM-SCC-74A and UM-SCC-74B were kindly provided by Professor TE Carey (University of Michigan, USA) and cultured in Dulbecco's Modified Eagle Medium (DMEM) with 10% fetal bovine serum, 1% L-glutamine, 1% antibiotics (100 IU penicillin and 100 μg/ml streptomycin) as well as 1% non-essential amino acids (all from Biochrom Kg, Berlin, Germany). UT-SCC-45 (kindly provided by Dr. R. Grenman, Turku University Central Hospital, Finland) was cultured in DMEM with the abovementioned additives. HCT116 and A431 were purchased from American Type Culture Collection (Manassas, VA, USA). […]
Five-hundred to ten thousands cells were seeded in flat-bottomed 96-well plates and incubated for 48 h prior to irradiation with 2Gy. […] Plates were incubated for up to 6 h at 37° and absorbance was measured by using a BioMark Microplate Reader (Bio-Rad Laboratories AB, Solna, Sweden).
GraphPad Prism version 6.07 (GraphPad Software, San Diego, USA) was used for data processing and analysis. p-values were determined using unpaired student's t-test for comparison between two groups or one-way ANOVA followed by Tukey's multiple comparisons test, with p < 0.05 (^*), p < 0.01 (^**), p < 0.001 (^***), and p < 0.0001 (^****). […]

cleaved caspase-3 [2] = assay: Western Blot cleaved caspase-3 expression, HCT116; assay type: cell-based
Procedure: as §1, §2

UM-SCC-74B = assay: XTT cell viability, UM-SCC-74B; assay type: cell-based, human
Procedure: The human squamous cell carcinoma cell lines UM-SCC-74A and UM-SCC-74B were kindly provided by Professor TE Carey (University of Michigan, USA) and cultured in Dulbecco's Modified Eagle Medium (DMEM) with 10% fetal bovine serum, 1% L-glutamine, 1% antibiotics (100 IU penicillin and 100 μg/ml streptomycin) as well as 1% non-essential amino acids (all from Biochrom Kg, Berlin, Germany). UT-SCC-45 (kindly provided by Dr. R. Grenman, Turku University Central Hospital, Finland) was cultured in DMEM with the abovementioned additives. HCT116 and A431 were purchased from American Type Culture Collection (Manassas, VA, USA). HCT116 was cultured in McCoy's modified Eagle medium with 10% fetal bovine serum, 1% L-glutamine and 1% antibiotics (100 IU penicillin and 100 μg/ml streptomycin) and A431 was cultured in Ham's F10 with the same additives. H314 was purchased from the European Collection of Authenticated Cell Cultures (Salisbury, UK) in DMEM/Ham's F12 (1:1) with the abovementioned additives. Cells were incubated at 37°C with 5% CO2, and cultivated for no longer than 2 months at a time.
as §1
Five-hundred to ten thousands cells were seeded in flat-bottomed 96-well plates and incubated for 48 h prior to irradiation with 2Gy. […] Cells were incubated at 37° for 4–5 days until 80–90% confluence had been obtained. A mix of XTT Activation Reagent and XTT Reagent was added according to the American Type Culture Collection 30–1011 K protocol (Manassas, VA, USA). Plates were incubated for up to 6 h at 37° and absorbance was measured by using a BioMark Microplate Reader (Bio-Rad Laboratories AB, Solna, Sweden).
GraphPad Prism version 6.07 (GraphPad Software, San Diego, USA) was used for data processing and analysis. p-values were determined using unpaired student's t-test for comparison between two groups or one-way ANOVA followed by Tukey's multiple comparisons test, with p < 0.05 (^*), p < 0.01 (^**), p < 0.001 (^***), and p < 0.0001 (^****). For XTT assays cell viability was normalized for irradiated and unirradiated samples separately. […] CDI ≤ 0.7 equaled significant synergistic effect, CDI ≤ 1 equaled additive effect and CDI > 1 equaled antagonistic effect ([29]).

CC(=O)N[C@H](C(=O)N[C@@H](CO)C(=O)N[C@@H](Cc1ccccc1)C(=O)N[C@]1(C)CCCCCCC=CCCC[C@@](C)(C(N)=O)NC(=O)[C@H](CC(C)C)NC(=O)[C@H](CC(C)C)NC(=O)[C@H](C)NC(=O)[C@H](Cc2c[nH]c3ccccc23)NC(=O)[C@H](Cc2ccc(O)cc2)NC(=O)[C@H](CCC(=O)O)NC1=O)[C@@H](C)O [PM2]
p53 expression (p53; 20 μM PM2, 24 h): increased expression of p53
p53 expression, combination versus PM2 alone (p53; 2 Gy + 20 μM PM2, 24 h): significant increase; also recorded: further increased wt p53 levels
cleaved caspase-3 expression (cleaved caspase-3 [1]; 20 μM PM2, 72 h): distinct increases
cleaved caspase-3 increase compared to controls (cleaved caspase-3 [1]; 20 μM PM2-treated, peak at 96 h, n ≥ 3): 10 fold
PM2 effect (UT-SCC-45; 0–20 μM PM2, 0 Gy, wild-type p53 (exon 4–8), HPV positive): unresponsive and No response and No
Significant effect of combination (UT-SCC-45; PM2 with 2 Gy EBRT): unresponsive and No response and No
increase in cleaved caspase-3 levels (cleaved caspase-3 [2]; 20 μM PM2, 96 h (representative blots), normalized to controls, n ≥ 3): three-fold
cleaved caspase-3 expression (cleaved caspase-3 [2]; 20 μM PM2-treated samples, n ≥ 3): increase in expression
cleaved caspase-3 expression, combination (cleaved caspase-3 [2]; 2 Gy + 20 μM PM2, n ≥ 3): predominant
PM2 effect (UM-SCC-74B; 0–20 μM PM2, 0 Gy, wild-type p53, HPV negative, n = 6): decreased significantly the viability and Yes
average viability reduction (UM-SCC-74B; 20 μM PM2, 0 Gy, compared to untreated controls): 90%
IC50 (UM-SCC-74B; PM2 alone (0 Gy), 4–5 days, n = 6): 17 µM
lowest PM2 dose with significant decrease of viability (UM-SCC-74B; PM2 alone, compared with ~10 μM for HCT116 and UM-SCC-74A): slightly higher dose
lowest PM2 dose with significant drop in viability of combination versus PM2-monotherapy (UM-SCC-74B; PM2 with 2 Gy EBRT): 10 µM
Significant effect of combination (UM-SCC-74B; PM2 with 2 Gy EBRT, n = 6): most pronounced sensitivity and Yes

From publication PMC6764291 (Frontiers in Oncology, 2019)
